Consider one substance from patent publication US10830683B2, “Method for measuring coagulation of blood samples using viscoelastic tests (VET)” (CA Casyso GmbH, priority 2012, dated 2020).

The test system of the test is citrated whole blood. The experiment in a line: ROTEM (NATEM) of recalcified citrated whole blood with added bead suspension or supernatant. Format: cell-based, human. Conditions: cell-coated beads preincubated with TNFα 10 ng/ml for 12-16 h; compared with unstimulated cells. On the procedure: To seed endothelial cells on microbeads, an approximate cell count of 400 OEC or HUVEC per bead was mixed with Cytodex 3 (collagen-coated) dextran microcarrier beads (GE Healthcare Bio-Sciences AB, Uppsala, Sweden) in 1 ml of EGM-2 medium. Beads and cells were incubated at 37° C. and 5% CO2 for 4 h and shaken gently every 20 min. After transferring the suspension to a 25-cm^2 tissue culture flask (Greiner Bio-One, Linz, Austria), microbeads were optionally incubated with TNFα (Sigma Aldrich, Vienna) at a final concentration of 10 ng/ml for 12-16 h at 37° C. and 5% CO2 in 4 ml of EGM-2 to simulate an inflammatory situation. To assess the influence of collagen, data from bare, collagen-coated Cytodex 3 were compared with uncoated Cytodex 1 (GE Healthcare Bio-Sciences AB, Uppsala, Sweden) beads in an identical setting.
Coated Beads and overnight-conditioned cell culture supernatant were gently taken up with a 10 ml serological pipette and transferred to a 15 ml Falcon tube. Once beads descended, the supernatant was carefully transferred to 1.5 ml tubes and centrifuged at 1,500×g for 20 minutes. […]
The following ROTEM parameters were calculated from the signal and included in the statistical analysis: Clotting time (CT, sec), latency until the clot reaches a firmness of 2 mm; measure for initial thrombin and fibrin formation. […]

Turning to TNFα, the “Clotting time (CT) after prior activation of cells” value is listed as “significant further shortening of CT”.
